Measured values reported in patent publication US20170119775A1, “TREATMENT OF COGNITIVE DISORDERS” (Algiax Pharmaceuticals GmbH, priority 2014, published 2017).

How the values were obtained:
male Wistar rats [1] = experiment: Object recognition task (ORT), natural forgetting, 24-h interval; format: in vivo, rat; conditions: 24 h delay, mean (SEM)
Description: In example 1, the compound AP-61 a 7-(4-tert butyl-cyclohexyl)-imidazotriazione (a compound of the formula II) was tested in the ORT in 3-4 month old male Wistar rats using a 24-h interval between the trials to induce natural forgetting.
(§1) One group of twenty four 3-4 month old male Wistar rats (Charles River, Sulzfeld, Germany) were used (average body weight at the beginning of the study: 365 g). All animals were housed individually in standard green line Tecniplast IVC cages on sawdust bedding. The animals were housed on a reversed 12/12-h light/dark cycle (lights on from 19:00 h to 07:00 h) and had free access to food and water. The rats were housed and tested in the same room. A radio, playing softly, provided background noise in the room. All testing was performed between 09:00 h and 18:00 h.
AP-61 was dissolved in 0.5% methylcellulose (MC) and 2% Tween 80. The solutions were prepared daily. Doses of 0.01, 0.03 and 0.1 mg/kg of AP-61 or vehicle were administered p.o. (injection volume was 2 ml/kg), immediately after T1. […]
A testing session comprised two trials, each with durations of 3 min. […] The times spent in exploring each object during T1 and T2 were recorded manually with a personal computer. […]
The measures were the times spent by rats in exploring each object during T1 and T2. […] From these exploration times the following variables were calculated: e1, e2 and d2 (Table 1). […]

male Wistar rats [2] = experiment: Xylazine/ketamine-induced anesthesia test (surrogate measure of emesis); format: in vivo, rat; conditions: for relative recovery time (duration of anesthesia, vehicle set at 100%), mean: 3.5 h before induction of anesthesia
Description: The mechanism of the emetic response associated with PDE4-Is is thought to be a consequence of the inhibition of PDE4 in non-target tissues. It is believed that PDE4-Is produce a pharmacological response analogous to that of presynaptic α2-adrenoreceptor inhibition by elevating intracellular levels of cAMP in noradrenergic neurons. Therefore, by removing an inhibitory mechanism, PDE4-Is are thought to modulate the release of mediators including 5-HT, substance P and noradrenaline involved in the onset of the emetic reflex mediated at emetic brainstem centers. PDE4-Is have the ability to reverse α2-adrenoreceptor agonist-mediated anesthesia with xylazine/ketamine in rodents (Robichaud et al., 2002). This effect is very likely mediated at the locus coeruleus in the brain stem. This confirms the postulate that PDE4-Is have effects similar to those of a2-adrenoreceptor antagonists. Since rodents are non-vomiting species, the ability of a PDE4-I to shorten a2-adrenergic receptor-mediated xylazine/ketamine anesthesia is therefore used as well-established surrogate measure of emesis in rodents.
as §1, with “Twenty” for “One group of twenty”
AP-61 was dissolved in 0.5% methylcellulose (MC) and 2% Tween 80. […] (injection volume was 2 ml/kg). […] The emetic properties of the PDE4-I rolipram are already assessed (Bruno et al., 2011). In the current study rolipram was used as a reference compound for AP-61 and applied in at dosages of 0.1 and 0.3 mg/kg. Rolipram was dissolved in 0.5% MC and 2% tween 80 (injection volume 2 ml/kg, route of administration was p.o.). For the induction of anesthesia, 10 mg/kg ketamine (Eurovet Animal Health, The Netherlands) and 10 mg/kg xylazine (CEVA Santé Animale, The Netherlands) were used (both administered i.p.). All solutions were prepared daily.
Rats were anesthetized with a combination of xylazine and ketamine (both 10 mg/kg, i.p). Fifteen minutes after induction of the anesthesia, rats were treated with rolipram or vehicle (0.1 or 0.3 mg/kg, p.o.) and the animals were placed in a dorsal position. The restoration of the righting reflex, i.e. when the animal no longer remained on its back and turned itself spontaneously to the prone position, was used as an endpoint to determine the duration of anesthesia. Animals that were not anesthetized after 15 min were excluded from the analysis.
AP-61 reached peak concentration at 5 h after oral administration. Because of this, induction of anesthesia with the combination of xylazine and ketamine was done 3.5 h after oral administration of AP-61. Animals were then placed in a dorsal position. The time delay to the recovery of the righting reflex was used as an endpoint to measure the duration of the anesthesia. Again, animals that were not anesthetized after 15 min were excluded from the analysis.
The restoration of the righting reflex, i.e. when the animal no longer remained on its back and turned itself spontaneously to the prone position (standing on four paws), was used as an endpoint to determine the duration to the anesthesia. Each test day a vehicle group was included. Outliers were removed from the analysis (Dixon-test). Each daily vehicle was set at 100% while the other treatment conditions of that day were expressed as a percentage of the vehicle. The following formula was used:
Duration of anesthesia after drug treatment (min)×(100/mean of duration of anesthesia of vehicle treatment (min)) […]

[3] = Plasma Tmax after oral administration; format: in vivo

Structure (SMILES): CCc1nc(C2CCC(C(C)(C)C)CC2)n2nc(-c3ccccc3)[nH]c(=O)c12 (stereo not drawn) [AP61, 7-(4-tert-butylcyclohexyl)-5-ethyl-2-phenylimidazo[5,1-f][1,2,4]triazin-4(3H)-one]
- d2, discrimination index between the new and familiar objects for T2 (male Wistar rats [1]; AP61 0.01 mg/kg p.o. immediately after T1): 0.10 (0.09)
- d2, discrimination index between the new and familiar objects for T2 (male Wistar rats [1]; AP61 0.1 mg/kg p.o. immediately after T1): 0.01 (0.08)
- relative recovery time (duration of anesthesia, vehicle set at 100%), mean (male Wistar rats [2]; AP61 0.03 mg/kg p.o.): 97.16%
- relative recovery time (duration of anesthesia, vehicle set at 100%), mean (male Wistar rats [2]; AP61 0.1 mg/kg p.o.): 107.16%
- relative recovery time (duration of anesthesia, vehicle set at 100%), mean (male Wistar rats [2]; AP61 3.0 mg/kg p.o.): 108.37%
- effect on duration of xylazine/ketamine-induced anesthesia compared with vehicle (summary) (male Wistar rats [2]; AP-61 0.03-3.0 mg/kg p.o., all doses): none of the doses led to a shortened duration
- emetic properties / gastrointestinal toxicity (conclusion) (male Wistar rats [2]; AP-61, all doses tested, within the effective dose range): does not show any signs of gastrointestinal toxicity
- Tmax [3]: 5 h

Structure (SMILES): COc1ccc(C2CNC(=O)C2)cc1OC1CCCC1 (stereo not drawn) [rolipram, reference compound]
- effect on duration of the xylazine/ketamine-induced anesthesia (summary) (male Wistar rats [2]; oral rolipram, 2 mg/kg, 15 min after induction of anesthesia (so in the source)): significant reduction
